Measurements: patent publication US10336792B2, “Antimicrobial peptide dendrimers” (priority 2014, dated 2019)
In brackets after ≈: the same amount, converted by molar mass. Positions of bridges follow the written chain, without caps; N, C: chain ends. Non-standard residues stand in square brackets, D forms with d. Residues, ends and D or L forms follow the SMILES beside them. Groups on a side chain read outwards from the residue. Chains are numbered I, II in the order given. *: point of attachment. Decanoyl = CCCCCCCCCC(=O)*; Orn = NCCC[C@H](N)C(=O)O; Dab = NCC[C@H](N)C(=O)O

Tests used:
[1] = system: PAO1; type: cell-based, Pseudomonas aeruginosa; details: PAO1
Description: (§1) Antimicrobial activity was assayed against P. aeruginosa PA01 (WT), P. aeruginosa PT1482 (A-), PT1485 (A-B-), PT1149 (A-B-C-algC), PT331 (Z61) (LPS mutants), P. aeruginosa PEJ2.6, PEJ9.1, ZEM1.A, ZEM9.A (clinical isolates from Université de Genève/Centre Médical Universitaire), Burkholderia cenocepacia (B. ceno), Staphylococcus aureus (S. aureus, MRSA strain) and Acinetobacter baumannii (A. baum) (clinical isolates from Université de Genève/Centre Médical Universitaire). To determine the minimal inhibitory concentration (MIC), microdilution broth method was used. A colony of bacteria was grown in MH-medium overnight at 37° C. The samples were prepared as stock solutions of 8 mg mL^−1 in H2O, diluted to the beginning concentration of 32, 64, 128 or 256 μg/mL in 300 μL MH-medium, added to the first well of 96-well microtiterplate (TPP, untreated) and diluted serially by ½. The concentration of the bacteria was quantified by measuring absorbance at 600 nm and diluted to OD600=0.022 in MH-medium. The sample solutions (150 μL) were mixed with 4 μL diluted bacterial suspension with a final inoculation of about of 5×10^5 CFU. The plates were incubated at 37° C. until satisfactory growth (˜18 h). For each test, two columns of the plate were kept for sterility control (SC, broth only) and growth control (GC, broth with bacterial inoculums, no antibiotics). The minimal inhibitory concentration (MIC) was defined as the lowest concentration of the antimicrobial substance (peptide dendrimer) that inhibited visible growth of the tested bacteria with the unaided eye. For microbiological study Polymyxin was used as references.

[2] = system: P. aeruginosa PA01 (WT); type: cell-based, Pseudomonas aeruginosa; details: WT
Description: as §1

[3] = system: Staphylococcus aureus (COL, MRSA reference strain); type: cell-based; details: COL, reference strain
Description: as §1
(§2) Ten of the most promising compounds (FIG. 5) were tested for their efficiency against four clinical isolates of P. aeruginosa (ZEM9.A, ZEM1.A, PEJ2.6, PEJ9.1), one S. aureus (COL, MRSA reference strain) and one A. baumannii strain. For the experiments in Genève the peptide dendrimers and reference compounds (polymyxin) were dissolved in PBS and the assay was carried out in Müller-Hinton (MH) broth with a two-fold dilution.

[4] = system: Acinetobacter baumannii; type: cell-based
Description: as §1, §2

[5] = system: P. aeruginosa PEJ2.6, PEJ9.1, ZEM1.A, ZEM9.A (clinical isolates); type: cell-based, Pseudomonas aeruginosa; details: PEJ2.6, PEJ9.1, ZEM1.A, ZEM9.A (clinical isolates)
Description: as §1, §2

[6] = system: male wistar rats; test: In-vivo toxicity study, single i.v. injection; parameters: species or system rat
Text: 4-6 weeks old male wistar rats (weight range 200-500 g) were used in toxicity experiments. Rats were obtained from Zentrale Tierställe Bern (Department of Clinical Research from University of Bern) and housed 4 per cage. Each experimental group includes two rats. All procedures, care and handling of the animals were reviewed and approved by the Veterinärdienst of Kanton Bern, Schweiz and execute in collaboration with the group of Prof. Hugues Abriel from Department of Clinical Research from University of Bern.
Rats were anesthetized with 4% isoflurane and 1 L/min oxygen in an induction chamber. When the rats were sleeping they were transferred on a clinical drape and anesthetized with 1-2% isoflurane and 0.8 l/min oxygen via a mask. The tail was warmed up with warm water and disinfected with 70% ethanol. The intravenous (i.v.) injections into the tail vein included a single dose of the AMPD of 2 mg/kg rat in 500 μL PBS. Before injection each rat was weighted individually and the exact dosage was determined. All rats, including control groups with no injection and i.v. injection of 500 μL PBS, were monitored for their survival and behavior for two days.
The compounds MSt-112, a 3rd generation AMPD with KL motive, MSt-181 its D-enantiomer analogue, MSt-242, a the 3rd generation with RL motive, and MSt-114 with Tyr instead of Lys in the 3rd generation were used for in vivo experiments with male wistar rats to assess their toxicity. These compounds were selected due to their high potencies and high MHCs values, which are at least 10 times higher than their activities. Each compound (concentration of 2 mg/kg) was applied to two rats by intravenous injection into the tail vein to observe if the AMPDs are well tolerated or may cause adverse effects. The concentration used was approx. 5-10 times higher than the MICs. […] The behaviour of the rats was normal. […] Therefore it seems that rats tolerate AMPDs very well, without visible site effects or even casualties.

[7] = system: P. aeruginosa PT1482 (A-), PT1485 (A-B-), PT1149 (A-B-C-algC), PT331 (Z61) (LPS mutants); type: cell-based, Pseudomonas aeruginosa; details: MH medium, 12-18 h
Description: as §1

[8] = system: Pseudomonas aeruginosa (strain PA01); test: microbe, parasite or virus in culture; type: cell-based; details: strain
Method in brief: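 P. aeruginosa PAO1 grown overnight in LB, diluted to OD600 0.001 and mixed with ⅔-step peptide dilutions, then incubated at 37 °C for 18–24 h. After MTT staining, the lowest concentration with no visible growth was read by eye as the MIC.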

[9] = system: Escherichia coli (strain DH5α); type: cell-based; details: DH5α
Method in brief: (§3)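 Broth microdilution MIC in LB; overnight cultures diluted to OD600 0.001 and mixed 1:1 with ⅔-serially diluted samples (stock 1 mg mL^−1 in H2O), 37° C for 18-24 h. MTT (0.1%) added; MIC read by eye as lowest concentration inhibiting visible growth (yellow).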

[10] = system: Bacillus subtilis (strain BR151); type: cell-based; details: strain BR151
Method in brief: as §3

SMILES	MIC (MH + 30% human serum) [1]	MIC (MH) [2]	MIC PAO1 [2]	MIC S. aureus COL [3]	MIC A. baumannii ATCC19606 [4]	MIC P. aeruginosa MDR clinical isolate PEJ2.6 [5]	MIC P. aeruginosa MDR clinical isolate PEJ9.1 [5]	MIC P. aeruginosa MDR clinical isolate ZEM1A [5]	MIC P. aeruginosa MDR clinical isolate ZEM9A [5]	visible effects and behaviour after injection ([6]; 2 mg/kg single i.v. dose into tail vein, two rats)	survival rate ([6]; 2 mg/kg single i.v. dose, monitored 2 days)	MIC PT1482 (A-) [7]	MIC PT1485 (AB-) [7]	MIC P. aeruginosa PAO1 [8]	MIC E. coli DH5α [9]	MIC B. subtilis BR151 [10]
CCCCCCCCCC(=O)NCCCC[C@H](NC(=O)[C@H](CC(C)C)NC(=O)[C@H](CCCCN)NC(=O)[C@H](CCCCNC(=O)[C@H](Cc1ccccc1)NC(=O)[C@H](CCN)NC(=O)[C@H](CCCCNC(=O)[C@H](CC(C)C)NC(=O)[C@@H](N)CCCN)NC(=O)[C@H](CC(C)C)NC(=O)[C@@H](N)CCCN)NC(=O)[C@H](Cc1ccccc1)NC(=O)[C@H](CCN)NC(=O)[C@H](CCCCNC(=O)[C@H](CC(C)C)NC(=O)[C@@H](N)CCCN)NC(=O)[C@H](CC(C)C)NC(=O)[C@@H](N)CCCN)C(N)=O [TNS-123, (OrnL)4(KDabF)2(KKLK-CO(CH2)8CH3)] (I: H-[Orn]LK([Leu-Orn])[Dab]FKKLK(Decanoyl)-NH2 / II: H-[Orn]LK([Leu-Orn])[Dab]F; amide I:6-II:C; N-terminus assumed)	8 to 16 µg/mL	2 µg/mL (≈ 0.859 µM)	4 to 8 µg/mL	32 to 64 µg/mL	32 µg/mL (≈ 13.7 µM)	16 µg/mL (≈ 6.87 µM)	>64 µg/mL	4 µg/mL (≈ 1.72 µM)	8 µg/mL (≈ 3.43 µM)	–	–	–	–	–	–	–
CCCCCCCCCC(=O)NCCCC[C@H](NC(=O)[C@H](CC(C)C)NC(=O)[C@H](CCCCN)NC(=O)[C@H](CCCCNC(=O)[C@H](CC(C)C)NC(=O)[C@H](CCCCN)NC(=O)[C@H](CCCCNC(=O)[C@H](CC(C)C)NC(=O)[C@@H](N)CCCCN)NC(=O)[C@H](CC(C)C)NC(=O)[C@@H](N)CCCCN)NC(=O)[C@H](CC(C)C)NC(=O)[C@H](CCCCN)NC(=O)[C@H](CCCCNC(=O)[C@H](CC(C)C)NC(=O)[C@@H](N)CCCCN)NC(=O)[C@H](CC(C)C)NC(=O)[C@@H](N)CCCCN)C(N)=O [Compound G2KLC10, (KL)4(KKL)2(KKL-CO(CH2)8CH3)] (I: H-KLK([Leu-Lys])KLKKLK(Decanoyl)-NH2 / II: H-KLK([Leu-Lys])KL; amide I:6-II:C; N-terminus assumed)	8 to 16 µg/mL	4 µg/mL (≈ 1.69 µM)	8 µg/mL (≈ 3.37 µM)	64 µg/mL (≈ 27 µM)	16 µg/mL (≈ 6.74 µM)	8 µg/mL (≈ 3.37 µM)	64 µg/mL (≈ 27 µM)	4 µg/mL (≈ 1.69 µM)	–	–	–	–	–	–	–	–
CCCCCCCCCC(=O)NCCCC[C@H](NC(=O)[C@H](CC(C)C)NC(=O)[C@H](CCCCN)NC(=O)[C@H](CCCCNC(=O)[C@H](CC(C)C)NC(=O)[C@H](CCN)NC(=O)[C@H](CCCCNC(=O)[C@H](Cc1ccccc1)NC(=O)[C@@H](N)CCCNC(=N)N)NC(=O)[C@H](Cc1ccccc1)NC(=O)[C@@H](N)CCCNC(=N)N)NC(=O)[C@H](CC(C)C)NC(=O)[C@H](CCN)NC(=O)[C@H](CCCCNC(=O)[C@H](Cc1ccccc1)NC(=O)[C@@H](N)CCCNC(=N)N)NC(=O)[C@H](Cc1ccccc1)NC(=O)[C@@H](N)CCCNC(=N)N)C(N)=O [TNS-124, (RF)4(KDabL)2(KKLK-CO(CH2)8CH3)] (I: H-RFK([Phe-Arg])[Dab]LKKLK(Decanoyl)-NH2 / II: H-RFK([Phe-Arg])[Dab]L; amide I:6-II:C; N-terminus assumed)	16 to 32 µg/mL	4 to 8 µg/mL	8 µg/mL (≈ 3.12 µM)	8 µg/mL (≈ 3.12 µM)	8 to 16 µg/mL	8 µg/mL (≈ 3.12 µM)	32 µg/mL (≈ 12.5 µM)	4 to 8 µg/mL	16 to 32 µg/mL	–	–	–	–	–	–	–
CC(C)C[C@H](NC(=O)[C@H](CCCCN)NC(=O)[C@H](CCCCNC(=O)[C@H](CC(C)C)NC(=O)[C@H](CCCCN)NC(=O)[C@H](CCCCNC(=O)[C@H](CC(C)C)NC(=O)[C@H](CCCCN)NC(=O)[C@H](CCCCNC(=O)[C@H](CC(C)C)NC(=O)[C@@H](N)CCCCN)NC(=O)[C@H](CC(C)C)NC(=O)[C@@H](N)CCCCN)NC(=O)[C@H](CC(C)C)NC(=O)[C@H](CCCCN)NC(=O)[C@H](CCCCNC(=O)[C@H](CC(C)C)NC(=O)[C@@H](N)CCCCN)NC(=O)[C@H](CC(C)C)NC(=O)[C@@H](N)CCCCN)NC(=O)[C@H](CC(C)C)NC(=O)[C@H](CCCCN)NC(=O)[C@H](CCCCNC(=O)[C@H](CC(C)C)NC(=O)[C@H](CCCCN)NC(=O)[C@H](CCCCNC(=O)[C@H](CC(C)C)NC(=O)[C@@H](N)CCCCN)NC(=O)[C@H](CC(C)C)NC(=O)[C@@H](N)CCCCN)NC(=O)[C@H](CC(C)C)NC(=O)[C@H](CCCCN)NC(=O)[C@H](CCCCNC(=O)[C@H](CC(C)C)NC(=O)[C@@H](N)CCCCN)NC(=O)[C@H](CC(C)C)NC(=O)[C@@H](N)CCCCN)C(N)=O [MSt-112, (KL)8(KKL)4(KKL)2(KKL)] (I: H-KLK([Leu-Lys])KLKKLKKL-NH2 / II: H-KLK([Leu-Lys])KLKKL / III: H-KLK([Leu-Lys])KL / IV: H-KLK([Leu-Lys])KL; amide I:6-IV:C, I:9-II:C, II:6-III:C)	–	4 µg/mL (≈ 0.882 µM)	4 µg/mL (≈ 0.882 µM)	>64 µg/mL	8 to 16 µg/mL	16 µg/mL (≈ 3.53 µM)	64 µg/mL (≈ 14.1 µM)	4 µg/mL (≈ 0.882 µM)	32 to 64 µg/mL	No visible effect	100%	4 µg/mL (≈ 0.882 µM)	4 µg/mL (≈ 0.882 µM)	2 µg/mL (≈ 0.441 µM)	4 µg/mL (≈ 0.882 µM)	3 µg/mL (≈ 0.662 µM)
